What was measured:
Assay type in all cases: functional
[1] = tested on: LOX IMVI; experiment: Growth inhibition of human LOXIMVI cells assessed as cell growth at 10 uM after 48 hrs by sulforhodamine B assay relative to control; conditions: read-out: Activity
[2] = tested on: HCT-15; experiment: Growth inhibition of human HCT15 cells assessed as cell growth at 10 uM after 48 hrs by sulforhodamine B assay relative to control; conditions: HCT-15, 48 h, read-out: Activity
[3] = tested on: SF-539; experiment: Growth inhibition of human SF539 cells assessed as cell growth at 10 uM after 48 hrs by sulforhodamine B assay relative to control; conditions: SF-539, 48 h, read-out: Activity
[4] = tested on: NCI-H460; experiment: Growth inhibition of human NCI-H460 cells assessed as cell growth at 10 uM after 48 hrs by sulforhodamine B assay relative to control; conditions: NCI-H460, 48 h, read-out: Activity
[5] = tested on: A498; experiment: Growth inhibition of human A498 cells assessed as cell growth at 10 uM after 48 hrs by sulforhodamine B assay relative to control; conditions: A498, 48 h, read-out: Activity
[6] = tested on: OVCAR-3; experiment: Growth inhibition of human OVCAR3 cells assessed as cell growth at 10 uM after 48 hrs by sulforhodamine B assay relative to control; conditions: OVCAR-3, 48 h, read-out: Activity
[7] = tested on: MDA-MB-435; experiment: Growth inhibition of human MDA-MB-435 cells assessed as cell growth at 10 uM after 48 hrs by sulforhodamine B assay relative to control; conditions: MDA-MB-435, 48 h, read-out: Activity
[8] = tested on: OVCAR-8; experiment: Growth inhibition of human OVCAR8 cells assessed as cell growth at 10 uM after 48 hrs by sulforhodamine B assay relative to control; conditions: OVCAR-8, 48 h, read-out: Activity
[9] = tested on: SW-620; experiment: Growth inhibition of human SW620 cells assessed as cell growth at 10 uM after 48 hrs by sulforhodamine B assay relative to control; conditions: SW-620, 48 h, read-out: Activity
[10] = tested on: OVCAR-4; experiment: Growth inhibition of human OVCAR4 cells assessed as cell growth at 10 uM after 48 hrs by sulforhodamine B assay relative to control; conditions: OVCAR-4, 48 h, read-out: Activity
[11] = tested on: SR; experiment: Growth inhibition of human SR cells assessed as cell growth at 10 uM after 48 hrs by sulforhodamine B assay relative to control; conditions: read-out: Activity
[12] = tested on: CAKI-1; experiment: Growth inhibition of human Caki1 cells assessed as cell growth at 10 uM after 48 hrs by sulforhodamine B assay relative to control; conditions: CAKI-1, 48 h, read-out: Activity
[13] = tested on: SN12C; experiment: Growth inhibition of human SN12C cells assessed as cell growth at 10 uM after 48 hrs by sulforhodamine B assay relative to control; conditions: read-out: Activity
[14] = tested on: A549; experiment: Growth inhibition of human A549/ATCC cells assessed as cell growth at 10 uM after 48 hrs by sulforhodamine B assay relative to control; conditions: A549, 48 h, read-out: Activity
[15] = tested on: SF-295; experiment: Growth inhibition of human SF295 cells assessed as cell growth at 10 uM after 48 hrs by sulforhodamine B assay relative to control; conditions: SF-295, 48 h, read-out: Activity
[16] = tested on: KM12; experiment: Growth inhibition of human KM12 cells assessed as cell growth at 10 uM after 48 hrs by sulforhodamine B assay relative to control; conditions: KM12, 48 h, read-out: Activity
[17] = tested on: Malme-3M; experiment: Growth inhibition of human MALME-3M cells assessed as cell growth at 10 uM after 48 hrs by sulforhodamine B assay relative to control; conditions: read-out: Activity
[18] = tested on: SK-MEL-5; experiment: Growth inhibition of human SK-MEL-5 cells assessed as cell growth at 10 uM after 48 hrs by sulforhodamine B assay relative to control; conditions: SK-MEL-5, 48 h, read-out: Activity
[19] = tested on: HCT-116; experiment: Growth inhibition of human HCT116 cells assessed as cell growth at 10 uM after 48 hrs by sulforhodamine B assay relative to control; conditions: HCT-116, 48 h, read-out: Activity
[20] = tested on: UACC-257; experiment: Growth inhibition of human UACC257 cells assessed as cell growth at 10 uM after 48 hrs by sulforhodamine B assay relative to control; conditions: UACC-257, 48 h, read-out: Activity
[21] = tested on: SF-268; experiment: Growth inhibition of human SF268 cells assessed as cell growth at 10 uM after 48 hrs by sulforhodamine B assay relative to control; conditions: SF-268, 48 h, read-out: Activity
[22] = tested on: OVCAR-5; experiment: Growth inhibition of human OVCAR5 cells assessed as cell growth at 10 uM after 48 hrs by sulforhodamine B assay relative to control; conditions: OVCAR-5, 48 h, read-out: Activity
[23] = tested on: K562; experiment: Growth inhibition of human K562 cells assessed as cell growth at 10 uM after 48 hrs by sulforhodamine B assay relative to control; conditions: K562, 48 h, read-out: Activity
[24] = tested on: HL-60(TB); experiment: Growth inhibition of human HL-60(TB) cells assessed as cell growth at 10 uM after 48 hrs by sulforhodamine B assay relative to control; conditions: HL-60, 48 h, read-out: Activity
[25] = tested on: RPMI-8226; experiment: Growth inhibition of human RPMI8226 cells assessed as cell growth at 10 uM after 48 hrs by sulforhodamine B assay relative to control; conditions: RPMI-8226, 48 h, read-out: Activity
[26] = tested on: UACC-62; experiment: Growth inhibition of human UACC62 cells assessed as cell growth at 10 uM after 48 hrs by sulforhodamine B assay relative to control; conditions: UACC-62, 48 h, read-out: Activity

SMILES | growth at 10 µM [1] | growth at 10 µM [2] | growth at 10 µM [3] | growth at 10 µM [4] | growth at 10 µM [5] | growth at 10 µM [6] | growth at 10 µM [7] | growth at 10 µM [8] | growth at 10 µM [9] | growth at 10 µM [10] | growth at 10 µM [11] | growth at 10 µM [12] | growth at 10 µM [13] | growth at 10 µM [14] | growth at 10 µM [15] | growth at 10 µM [16] | growth at 10 µM [17] | growth at 10 µM [18] | growth at 10 µM [19] | growth at 10 µM [20] | further results
COc1ccc(Cn2cc(C(=O)N/N=C3/C(=O)Nc4c(F)cccc43)nn2)cc1 | 97.8% | 99.5% | 92.7% | 105% | 113% | 111% | 102% | 85.5% | 92.7% | 61.5% | 90.3% | 84.2% | 94.8% | 93.2% | 98% | 101% | 78.2% | 99.3% | 63.7% | 88.7% | growth at 10 µM [21]: 100%; growth at 10 µM [22]: 94.8%; growth at 10 µM [23]: 88%; growth at 10 µM [24]: 90.7%; growth at 10 µM [25]: 89.7%; growth at 10 µM [26]: 89.3%
COc1ccc(Cn2cc(C(=O)N/N=C3/C(=O)Nc4ccc(C)cc43)nn2)cc1 | 102% | 111% | 103% | 105% | 91.6% | 108% | 101% | 104% | 104% | 104% | 86% | 95.4% | 98.4% | 97.9% | 111% | 95.4% | 106% | 91.7% | 122% | 101% | growth at 10 µM [21]: 94.1%; growth at 10 µM [22]: 105%; growth at 10 µM [23]: 87.8%; growth at 10 µM [24]: 84.8%; growth at 10 µM [25]: 105%; growth at 10 µM [26]: 94.6%
COc1ccc(Cn2cc(C(=O)N/N=C3/C(=O)Nc4ccc(F)cc43)nn2)cc1 | 102% | 103% | 107% | 106% | 83.4% | 112% | 103% | 98.7% | 103% | 101% | 102% | 97.4% | 94.6% | 94.2% | 95.4% | 95.8% | 104% | 103% | 108% | 91% | growth at 10 µM [21]: 103%; growth at 10 µM [22]: 94.7%; growth at 10 µM [23]: 97.2%; growth at 10 µM [24]: 101%; growth at 10 µM [25]: 99.1%; growth at 10 µM [26]: 88.6%
COc1ccc(Cn2cc(C(=O)N/N=C3/C(=O)Nc4ccc(Br)cc43)nn2)cc1 | 107% | 105% | 104% | 111% | 97.1% | 112% | 101% | 99.2% | 107% | 105% | 77.5% | 97.7% | 102% | 95.1% | 95.8% | 104% | -89.9% | 98.3% | 77% | 102% | growth at 10 µM [21]: 94.1%; growth at 10 µM [22]: 106%; growth at 10 µM [23]: 88.1%; growth at 10 µM [24]: 85.2%; growth at 10 µM [25]: 100%; growth at 10 µM [26]: 97.2%
COc1ccc(Cn2cc(C(=O)N/N=C3/C(=O)Nc4ccccc43)nn2)cc1 | 102% | 105% | 108% | 109% | 96% | 112% | 100% | 97.8% | 101% | 108% | 94.8% | 93.3% | 96.3% | 98.4% | 103% | 101% | 97.2% | 102% | 109% | 102% | growth at 10 µM [21]: 101%; growth at 10 µM [22]: 93%; growth at 10 µM [23]: 90.5%; growth at 10 µM [24]: 93.3%; growth at 10 µM [25]: 105%; growth at 10 µM [26]: 96.7%
